Experimental data taken from US20220033434A1, “ANDROGEN RECEPTOR NUCLEIC ACIDS AND USES THEREOF” (Avidity Biosciences, Inc., priority 2016, published 2022).
In the oligonucleotide strings, read from the 5' end, every base follows the letter of its sugar. An asterisk marks phosphorothioate; unmarked linkages are phosphodiester. Other units and linkages are bracketed, terminal groups are in braces. A string of capitals states the bases alone. d = 2'-deoxy (DNA); m = 2'-O-methyl; f = 2'-fluoro

Tests used:
Assay type in all cases: cell-based, human
AR mRNA [1] = assay: AR mRNA IC50 and maximal KD, siRNA at various concentrations, LNCaP cells, qPCR probes exon junctions 1/2 or 4/5
Description: (§1) Focusing on siRNAs targeting AR sequences exons 1 and 2, the ability of these siRNAs to downregulate AR mRNA at a concentration of 5 nM was determined by RT-qPCR. For this purpose, siRNAs were transfected into 22RV1 and LNCaP cells as described above. At 24 hrs post-transfection, RNA was harvested from cells using a Qiagen RNeasy® Plus Mini Kit or Stratec InviTrap® RNA Cell HTS96 kit. The concentration of each isolated RNA was determined via A260 measurement using a NanoDrop spectrophotometer. RNA samples were reverse transcribed to cDNA using the High Capacity RNA to cDNA Kit (Life Technologies) according to the manufacturer's instructions. cDNA samples were then quantified by qPCR using AR-specific probes and results normalized to either endogenous β-actin or PPIB using the standard 2^−ΔΔCt method. These studies identified 6 siRNAs that at a concentration of 5 nM down regulated AR mRNA in 22RV1 and LNCaP cells by more than 80% compared to controls (Table 4).
(§2) To determine the concentration required to reduce AR expression by 50% (IC50) and maximal KD activity, these siRNAs were transfected into LNCaP, C4-2, and 22RV1 cells at various concentrations starting at 100 nM. C4-2 (MD Anderson) is an LNCaP subline that has been selected for resistance against clinically used AR antagonists (Wu et al., “Derivation of androgen-independent human LNCaP prostatic cancer cell sublines: Role of bone stromal cells,” International J Cancer 1994; 57:406-412). Cells were harvested 48 h post-transfection; RNA was prepared and analyzed as stated above. For these experiments, specific AR qPCR probes located at the exon junctions 1/2 or 4/5 were used that recognize most mRNAs of relevant AR isoforms or primarily full length AR mRNA, respectively. All tested siRNAs lowered AR expression with subnanomolar potency to 70% in 22RV1 cells and to ≥90% in LNCaP and C4-2 cells (Table 5). […]

AR mRNA [2] = assay: AR mRNA IC50 and maximal KD, siRNA at various concentrations, C4-2 cells, qPCR probes exon junctions 1/2 or 4/5
Description: as §1, §2

AR-SV(2) = assay: AR protein knock-down by Western blot after siRNA transfection in 22RV1 cells: AR-SV(2); settings: 5 nM siRNA, 50 h post transfection, compared to controls
Method in brief: (§3)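 siRNAs transfected at 5 nM final (lipid reagent, forward transfection) into 22RV1 (splice variants) or LNCaP (full-length AR T877A) cells; lysates taken at 50 h and 72 h respectively. AR isoforms detected by Western blot with N-terminal AR antibody, α-tubulin control, quantified by IRDye infrared imaging.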

AR mRNA [3] = assay: AR mRNA IC50 and maximal KD, siRNA at various concentrations, 22RV1 cells, qPCR probes exon junctions 1/2 or 4/5
Description: as §1, §2

AR mRNA [4] = assay: AR mRNA downregulation by RT-qPCR at 5 nM siRNA in LNCaP cells; settings: 24 hrs post-transfection
Description: as §1

[5] = system: AR FL (full length AR T877A LBD mutant); assay: AR protein knock-down by Western blot after siRNA transfection in LNCaP cells: AR FL; settings: 5 nM siRNA, 72 h post transfection, compared to controls
Method in brief: as §3

AR-SV(3) = assay: AR protein knock-down by Western blot after siRNA transfection in 22RV1 cells: AR-SV(3); settings: 5 nM siRNA, 50 h post transfection, compared to controls
Method in brief: as §3

AR mRNA [6] = assay: AR mRNA downregulation by RT-qPCR at 5 nM siRNA in 22RV1 cells; settings: 24 hrs post-transfection
Description: as §1

AR FL(1) = assay: AR protein knock-down by Western blot after siRNA transfection in 22RV1 cells: AR FL(1); settings: 5 nM siRNA, 50 h post transfection, compared to controls
Method in brief: as §3

[7] = system: Prostate Specific Antigen (PSA); assay: AR and PSA levels by qRT-PCR after siRNA transfection in LNCaP cells; settings: various concentrations, 3 days after transfection
From the text: (§4) To monitor regulation of AR target genes as a consequence of siRNA-mediated changes in AR […], LNCaP cells were transfected with various concentrations of XD-01829 (also referred to as XD-0189), and the levels of AR and the Prostate Specific Antigen (PSA) monitored by qRT-PCR. PSA expression is positively regulated by AR and used clinically as a biomarker for AR activity in prostate cancer patients. […] A similar experiment compared the expression of AR, PSA and the Prostate-Specific Membrane Antigen (PSMA) in response to treatment with the AR antagonist Enzalutamide or AR siRNA XD-01829 (or XD-0189). PSMA expression is negatively regulated by AR. For these experiments, hormone therapy resistant 22RV1 cells were transfected with 5 nM of either a scrambled control siRNA (negative control, Enzalutamide group) or XD-01829 (or XD-0189) as described above. After incubation for 24 hours, the negative control and XD-01829 (or XD-0189) groups were treated with DMSO, and the enzalutamide group with 10 μM Enzalutamide. After incubation for 20 hours RNAs were prepared as outlined above and AR, PSA, and PSMA levels evaluated by qRT-PCR.

[8] = system: AR target gene expression (PSA, PSMA); assay: AR, PSA and PSMA levels by qRT-PCR in hormone therapy resistant 22RV1 cells, siRNA versus Enzalutamide; settings: 5 nM siRNA (24 h + 20 h DMSO) or 10 μM Enzalutamide 20 hours
From the text: as §4

[9] = AR qPCR probe at exon junction 1/2, 48 h post-transfection
[10] = AR qPCR probe at exon junction 1/2, 48 h post-transfection, read-out: IC50 (nM), LNCaP, Exon 1/2
[11] = AR qPCR probe at exon junction 4/5, 48 h post-transfection
[12] = AR qPCR probe at exon junction 4/5, 48 h post-transfection, read-out: IC50 (nM), LNCaP, Exon 4/5
[13] = AR qPCR probe at exon junction 1/2, 48 h post-transfection, read-out: IC50 (nM), C4-2, Exon 1/2
[14] = AR qPCR probe at exon junction 4/5, 48 h post-transfection, read-out: IC50 (nM), C4-2, Exon 4/5
[15] = AR qPCR probe at exon junction 1/2, 48 h post-transfection, read-out: IC50 (nM), 22RV1, Exon 1/2
[16] = AR qPCR probe at exon junction 4/5, 48 h post-transfection, read-out: IC50 (nM), 22RV1, Exon 4/5

Row | Substance | max KD (%), LNCaP, Exon 1/2 (AR mRNA [1]; [9]) | IC50 (AR mRNA [1]; [10]) | max KD (%), LNCaP, Exon 4/5 (AR mRNA [1]; [11]) | IC50 (AR mRNA [1]; [12]) | max KD (%), C4-2, Exon 1/2 (AR mRNA [2]; [9]) | IC50 (AR mRNA [2]; [13]) | max KD (%), C4-2, Exon 4/5 (AR mRNA [2]; [11]) | IC50 (AR mRNA [2]; [14]) | % KD AR Protein 22RV1 AR-SV(2) (AR-SV(2)) | max KD (%), 22RV1, Exon 1/2 (AR mRNA [3]; [9]) | IC50 (AR mRNA [3]; [15]) | max KD (%), 22RV1, Exon 4/5 (AR mRNA [3]; [11]) | IC50 (AR mRNA [3]; [16]) | % KD AR RNA LNCaP (AR mRNA [4]) | % KD AR Protein LNCaP AR FL [5] | % KD AR Protein 22RV1 AR-SV(3) (AR-SV(3)) | % KD AR RNA 22RV1 (AR mRNA [6]) | % KD AR Protein 22RV1 AR FL(1) (AR FL(1)) | AR and PSA levels [7] | regulation of AR target gene expression (PSA, PSMA) [8]
1 | XD-01828: AR siRNA with chemical modification, Id # 2820; sense X05351 (SEQ ID NO: 181), antisense X05352 (SEQ ID NO: 182) (sense mGmGfGmUfGmUfCmAfCmUfAmUfGmGfAmGfCmUfCdT*dT; antisense fGfAmGfCmUfCmCfAmUfAmGfUmGfAmCfAmCfCmCdT*dT) | 84.8% | 0.023 nM | 81.7% | 0.028 nM | 81.1% | 0.022 nM | 77.7% | 0.02 nM | 89% | 51.7% | 0.042 nM | 50.7% | 0.028 nM | 84% | 90% | 92% | 96% | 80% | – | –
2 | XD-01829: AR siRNA with chemical modification, Id # 2822; sense X05353 (SEQ ID NO: 183), antisense X05354 (SEQ ID NO: 184) (sense mGmUfGmUfCmAfCmUfAmUfGmGfAmGfCmUfCmUfCdT*dT; antisense fGfAmGfAmGfCmUfCmCfAmUfAmGfUmGfAmCfAmCdT*dT) | 94.2% | 0.016 nM | 92.3% | 0.016 nM | 94.7% | 0.013 nM | 92.6% | 0.011 nM | 99% | 72.1% | 0.038 nM | 68.1% | 0.018 nM | 92% | 91% | 97% | 86% | 97% | highly correlated | regulate AR target gene expression
